According to patent publication US8361968B2 (Takeda Pharmaceutical Company Limited, priority 2002, dated 2013):
Where “and” joins values, the source holds several entries; their conditions need not be identical. Identical values can stand only once. Square brackets hold non-standard residues; d marks the D form. Peptide text beside a SMILES is read from it. * marks the point of attachment. NαAmidinoTrp = N=C(N)N[C@@H](Cc1c[nH]c2ccccc12)C(=O)*; Diphenylacetyl = O=C(C(c1ccccc1)c1ccccc1)*; Phe(4-F) = N[C@@H](Cc1ccc(F)cc1)C(=O)O; 2Nal = N[C@@H](Cc1ccc2ccccc2c1)C(=O)O; Arg(Me) = CNC(=N)NCCC[C@H](N)C(=O)O; X3 = NC(=S)[C@H](Cc1ccccc1)N*; Orn = NCCC[C@H](N)C(=O)O; azaGly = NNC(=O)O

Columns and labels:
hOT7T175 [1] = molecular target: T1, hOT7T175 (Homo sapiens, UniProt Q969F8, L364H); experiment: Intracellular Ca ion level-increasing activity using FLIPR in hOT7T175/CHO; assay type: cell-based; design: expressed in transfected cells; host or cells: CHO/dhfr- cells, obtained from ATCC; conditions: relative, Metastin (1-54) = 1
hOT7T175 [2] = molecular target: T1, hOT7T175; experiment: hOT7T175 receptor binding activity: binding inhibition of Cy-5-labeled metastin (40-54) on hOT7T175-expressed CHO cells; design: expressed in transfected cells; host or cells: CHO cells
Experimental: Assay for hOT7T175 Receptor Binding Activity
h0T7T175-Expressed CHO cells were cultured in MEM-cc medium (nucleic acid-free) containing 10% dialyzed serum. The medium was removed and the adherent cells were washed with PBS. Then, PBS containing 5 mM EDTA was added and the cells were scraped from a flask with a cell scraper. […] To each well of a 96-Well Black Clear Bottom Plate (Applied Biosystems, Inc.), 10 μL of assay buffer containing 1% dimethylsulfoxide was added to examine total binding, 10 μL of 10 μM non-labeled peptide (having the same amino acid sequence as that of the labeled one) solution diluted with assay buffer to examine non-specific binding, and 10 μL of a test compound diluted with assay buffer to examine the binding inhibition activity of the test compound, respectively. Furthermore, 90 μL each of the cell suspension was dispensed to each well. […] The specific binding is a value obtained by subtracting the non-specific binding from the total binding.

T1 sequence (Q969F8 whole entry L364H): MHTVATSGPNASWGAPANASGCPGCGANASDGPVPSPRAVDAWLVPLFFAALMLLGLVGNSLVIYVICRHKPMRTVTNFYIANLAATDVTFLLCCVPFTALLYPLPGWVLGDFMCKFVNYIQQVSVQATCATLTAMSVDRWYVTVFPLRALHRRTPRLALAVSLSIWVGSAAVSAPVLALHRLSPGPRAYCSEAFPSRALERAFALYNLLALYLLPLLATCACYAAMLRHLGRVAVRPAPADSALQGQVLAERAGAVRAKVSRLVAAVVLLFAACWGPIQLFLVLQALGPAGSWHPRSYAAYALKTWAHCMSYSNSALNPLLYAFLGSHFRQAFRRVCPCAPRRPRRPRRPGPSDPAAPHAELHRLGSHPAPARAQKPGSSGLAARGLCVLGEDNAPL

Structure (SMILES) | Specific Activity (intracellular Ca ion level-increasing activity) (hOT7T175 [1]) | IC50 (hOT7T175 [2])
CNC(=N)NCCC[C@H](NC(=O)[C@H](CC(C)C)NC(=O)NNC(=O)[C@H](Cc1ccccc1)NC(=O)[C@H](CO)NC(=O)[C@H](CC(N)=O)NC(=O)C(c1ccccc1)c1ccccc1)C(=O)N[C@@H](Cc1ccccc1)C(N)=O [Compound No. 268, Diphenylacetyl-Asn-Ser-Phe-AzaGly-Leu-Arg(Me)-Phe-NH2] (Diphenylacetyl-NSF[azaGly]L[Arg(Me)]F-NH2) | 1 | 550 nM
CNC(=N)NCCC[C@H](NC(=O)[C@H](CC(C)C)NC(=O)CNC(=O)[C@H](Cc1ccccc1)NC(=O)[C@H](CO)NC(=O)[C@H](CC(N)=O)NC(=O)[C@@H](NC(=O)[C@H](CC(N)=O)NC(=O)[C@H](N)Cc1ccc(O)cc1)[C@@H](C)O)C(=O)N[C@@H](Cc1ccccc1)C(N)=O [Compound No. 205] (H-[dY]NTNSFGL[Arg(Me)]F-NH2) | 10 | 260 nM
CNC(=N)NCCC[C@H](NC(=O)[C@H](CC(C)C)NC(=O)CNC(=O)[C@H](Cc1ccccc1)NC(=O)[C@H](CO)NC(=O)[C@H](CC(N)=O)NC(=O)[C@@H](Cc1c[nH]c2ccccc12)NC(=O)[C@H](N)Cc1ccc(O)cc1)C(=O)N[C@@H](Cc1ccccc1)C(N)=O [Compound No. 224, D-Tyr-D-Trp-Asn-Ser-Phe-Gly-Leu-Arg(Me)-Phe-NH2] (H-[dY][dW]NSFGL[Arg(Me)]F-NH2) | 2 and 1 | 140 nM
CC(C)C[C@H](NC(=O)[C@H](C)NC(=O)[C@H](Cc1ccccc1)NC(=O)[C@H](CO)NC(=O)[C@H](CC(N)=O)NC(=O)[C@H](Cc1c[nH]c2ccccc12)NC(=O)[C@H](CC(N)=O)NC(=O)[C@@H](N)Cc1ccc(O)cc1)C(=O)N[C@@H](CCCNC(=N)N)C(=O)N[C@@H](Cc1ccccc1)C(N)=O [Compound No. 50] (H-YNWNSFALRF-NH2) | 30 | 190 nM
CNC(=N)NCCC[C@H](NC(=O)[C@H](CC(C)C)NC(=O)NNC(=O)[C@H](Cc1ccccc1)NC(=O)[C@H](CO)NC(=O)[C@H](CC(N)=O)NC(=O)[C@@H](NC(=O)[C@@H](CC(N)=O)NC(=O)[C@H](N)Cc1ccc(O)cc1)[C@@H](C)O)C(=O)N[C@@H](Cc1ccc(F)cc1)C(N)=O [Compound No. 316, D-Tyr-D-Asn-Thr-Asn-Ser-Phe-AzaGly-Leu-Arg(Me)-Phe(4F)-NH2] (H-[dY][dN]TNSF[azaGly]L[Arg(Me)][Phe(4-F)]-NH2) | 1 | 26 nM
CC(C)C[C@H](NC(=O)CNC(=O)[C@H](Cc1ccccc1)NC(=O)[C@H](CO)NC(=O)[C@H](CC(N)=O)NC(=O)[C@H](Cc1c[nH]c2ccccc12)NC(=O)[C@H](CC(N)=O)NC(=O)[C@@H](N)Cc1ccc(O)cc1)C(=O)N[C@@H](CCCN)C(=O)N[C@@H](Cc1ccccc1)C(N)=O [Compound No. 314] (H-YNWNSFGL[Orn]F-NH2) | 1 | 470 nM
CNC(=N)NCCC[C@H](NC(=O)[C@H](CC(C)C)NC(=O)NNC(=O)[C@H](Cc1ccccc1)NC(=O)[C@H](CO)NC(=O)[C@H](CC(N)=O)NC(=O)[C@H](Cc1c[nH]c2ccccc12)NC(=N)N)C(=O)N[C@@H](Cc1ccccc1)C(N)=O [Compound No. 273, Amidino-Trp-Asn-Ser-Phe-AzaGly-Leu-Arg(Me)-Phe-NH2] (NαAmidinoTrp-NSF[azaGly]L[Arg(Me)]F-NH2) | 5 | 300 nM
CC(C)C[C@H](NC(=O)CNC(=O)[C@H](Cc1ccccc1)NC(=O)[C@H](CO)NC(=O)[C@H](CC(N)=O)NC(=O)[C@H](Cc1c[nH]c2ccccc12)NC(=O)[C@H](CC(N)=O)NC(=O)[C@H](N)Cc1ccc(O)cc1)C(=O)N[C@@H](CCCNC(=N)N)C(=O)N[C@@H](Cc1ccccc1)C(N)=S [Compound No. 146] (H-[dY]NWNSFGLR-X3) | 10 | 370 nM
CC(C)[C@H](NC(=O)CNC(=O)[C@H](Cc1ccccc1)NC(=O)[C@H](CO)NC(=O)[C@H](CC(N)=O)NC(=O)[C@H](Cc1c[nH]c2ccccc12)NC(=O)[C@H](CC(N)=O)NC(=O)[C@@H](N)Cc1ccc(O)cc1)C(=O)N[C@@H](CCCNC(=N)N)C(=O)N[C@@H](Cc1ccccc1)C(N)=O [Compound No. 107] (H-YNWNSFGVRF-NH2) |  | 120 nM
CC(C)C[C@H](NC(=O)CNC(=O)[C@H](Cc1ccccc1)NC(=O)[C@H](CO)NC(=O)[C@H](CC(N)=O)NC(=O)[C@H](Cc1c[nH]c2ccccc12)NC(=O)[C@H](CC(N)=O)NC(=O)[C@@H](N)Cc1ccc(O)cc1)C(=O)N[C@@H](CCCNC(=N)N(C)C)C(=O)N[C@@H](Cc1ccccc1)C(N)=O [Compound No. 83] |  | 25 nM
CC(C)C[C@H](NC(=O)CNC(=O)[C@H](Cc1ccccc1)NC(=O)[C@H](CO)NC(=O)[C@H](CC(N)=O)NC(=O)[C@H](CC(C)C)NC(=O)[C@H](CC(N)=O)NC(=O)[C@@H](N)Cc1ccc(O)cc1)C(=O)N[C@@H](CCCNC(=N)N)C(=O)N[C@@H](Cc1ccccc1)C(N)=O [Compound No. 68] (H-YNLNSFGLRF-NH2) |  | 7.7 nM
CNC(=N)NCCC[C@H](NC(=O)[C@H](CC(C)C)NC(=O)NNC(=O)[C@H](Cc1ccccc1)NC(=O)[C@H](CO)NC(=O)[C@H](CC(N)=O)NC(=O)[C@H](CCCNC(=N)N)NC(C)=O)C(=O)N[C@@H](Cc1ccccc1)C(N)=O [Compound No. 275, Acetyl-Arg-Asn-Ser-Phe-AzaGly-Leu-Arg(Me)-Phe-NH2] (Ac-RNSF[azaGly]L[Arg(Me)]F-NH2) |  | 410 nM
CC(C)C[C@H](NC(=O)CNC(=O)[C@H](Cc1ccccc1)NC(=O)[C@H](CO)NC(=O)[C@H](CC(N)=O)NC(=O)[C@H](Cc1c[nH]c2ccccc12)NC(=O)[C@@H](N)CC(N)=O)C(=O)N[C@@H](CCCNC(=N)N)C(=O)N[C@@H](Cc1ccccc1)C(N)=O [Compound No. 4, des(1)-MS10, reference compound] (H-NWNSFGLRF-NH2; N-terminus assumed) |  | 260 nM
CC(C)C[C@H](NC(=O)CNC(=O)[C@H](Cc1ccccc1)NC(=O)[C@H](CO)NC(=O)[C@H](CC(N)=O)NC(=O)[C@H](Cc1c[nH]c2ccccc12)NC(=O)[C@H](CC(N)=O)NC(=O)[C@H](C)N)C(=O)N[C@@H](CCCNC(=N)N)C(=O)N[C@@H](Cc1ccccc1)C(N)=O [Compound No. 72] (H-ANWNSFGLRF-NH2) |  | 540 nM
CC(C)C[C@H](NC(=O)CNC(=O)[C@H](Cc1ccc(O)cc1)NC(=O)[C@H](CO)NC(=O)[C@H](CC(N)=O)NC(=O)[C@H](Cc1c[nH]c2ccccc12)NC(=O)[C@H](CC(N)=O)NC(=O)[C@@H](N)Cc1ccc(O)cc1)C(=O)N[C@@H](CCCNC(=N)N)C(=O)N[C@@H](Cc1ccccc1)C(N)=O [Compound No. 150] (H-YNWNSYGLRF-NH2) |  | 320 nM
CC(C)C[C@H](NC(=O)CNC(=O)[C@H](Cc1ccccc1)NC(=O)[C@H](CO)NC(=O)[C@H](CC(N)=O)NC(=O)[C@H](CO)NC(=O)[C@H](CC(N)=O)NC(=O)[C@@H](N)Cc1ccc(O)cc1)C(=O)N[C@@H](CCCNC(=N)N)C(=O)N[C@@H](Cc1ccccc1)C(N)=O [Compound No. 69] (H-YNSNSFGLRF-NH2) |  | 83 nM
CNC(=N)NCCC[C@H](NC(=O)[C@H](CC(C)C)NC(=O)CNC(=O)[C@H](Cc1ccccc1)NC(=O)[C@H](CO)NC(=O)[C@H](CC(N)=O)NC(=O)[C@@H](Cc1c[nH]c2ccccc12)NC(=O)[C@H](N)CC(N)=O)C(=O)N[C@@H](Cc1ccccc1)C(N)=O [Compound No. 225, D-Asn-D-Trp-Asn-Ser-Phe-Gly-Leu-Arg(Me)-Phe-NH2] (H-[dN][dW]NSFGL[Arg(Me)]F-NH2) |  | 410 nM
C/N=C(/NC)NCCC[C@H](NC(=O)[C@H](CC(C)C)NC(=O)CNC(=O)[C@H](Cc1ccccc1)NC(=O)[C@H](CO)NC(=O)[C@H](CC(N)=O)NC(=O)[C@H](Cc1c[nH]c2ccccc12)NC(=O)[C@H](CC(N)=O)NC(=O)[C@@H](N)Cc1ccc(O)cc1)C(=O)N[C@@H](Cc1ccccc1)C(N)=O [Compound No. 129] |  | 83 nM
CNC(N)=NCCC[C@H](NC(=O)[C@H](CC(C)C)NC(=O)NNC(=O)[C@H](Cc1ccccc1)NC(=O)[C@H](CO)NC(=O)[C@H](CC(N)=O)NC(=O)[C@H](CO)NC(=O)[C@H](CC(N)=O)NC(=O)[C@H](N)Cc1ccc(O)cc1)C(=O)N[C@@H](Cc1ccccc1)C(N)=O [Compound No. 191, D-Tyr-Asn-Ser-Asn-Ser-Phe-AzaGly-Leu-Arg(Me)-Phe-NH2] (H-[dY]NSNSF[azaGly]L[Arg(Me)]F-NH2) |  | 300 nM
CNC(N)=NCCC[C@H](NC(=O)[C@H](CC(C)C)NC(=O)NNC(=O)[C@H](Cc1ccccc1)NC(=O)[C@H](CO)NC(=O)[C@H](CC(N)=O)NC(=O)[C@@H](NC(=O)[C@H](CC(N)=O)NC(=O)[C@H](N)Cc1ccc(O)cc1)[C@@H](C)O)C(=O)N[C@@H](Cc1ccccc1)C(N)=O [Compound No. 221, D-Tyr-Asn-Thr-Asn-Ser-Phe-AzaGly-Leu-Arg(Me)-Phe-NH2] (H-[dY]NTNSF[azaGly]L[Arg(Me)]F-NH2) |  | 95 nM
CNC(N)=NCCC[C@H](NC(=O)[C@H](CC(C)C)NC(=O)NNC(=O)[C@H](Cc1ccccc1)NC(=O)[C@H](CO)NC(=O)[C@H](CC(N)=O)NC(=O)[C@H](Cc1ccc2ccccc2c1)NC(=O)[C@H](N)Cc1ccc(O)cc1)C(=O)N[C@@H](Cc1ccccc1)C(N)=O [Compound No. 255, D-Tyr-Nal(2)-Asn-Ser-Phe-AzaGly-Leu-Arg(Me)-Phe-NH2] (H-[dY][2Nal]NSF[azaGly]L[Arg(Me)]F-NH2) |  | 33 nM
